Counter-ions that a name gives are not always drawn. Like-named read-outs stand apart in the source and are kept apart here.
Assays:
KP-1 cells = assay: Dose-dependent CCK8 viability assay; assay type: cell-based; conditions: Mus musculus, 48 hours
Description: In this example, dose-dependent CCK8 Viability assay was performed to determine the IC50 (the concentration of compound to achieve 50% viability) of several of the hit compounds identified from Example 2. A variety of cell lines were used: • Jurkat cells: Human leukemia • A549 cells: Human NSCLC • KP-1 cells: Mouse NSCLC with KRAS and P53 mutations • MCF-7 cells: Human breast cancer
Method for Adherent Cells (A549, MCF-7 and KP-1 Cells)
5000 cells/100 uL were seeded in 96-well plates and incubate at 37° C.+5% CO2 overnight. Media were replaced with 100 uL of compound per well in 6 replicates in a series of 2-fold dilutions. The following controls were prepared.
Blank control: 100 uL 0.1% DMSO in media with no cells per well.
Positive control: 100 uL of 10 uM 5-flurouracil per well.
Negative control: 100 uL of 0.1% DMSO in media per well.
Each 96-well plate included 1 compound in 7 concentrations and a complete set of controls (in 6 replicates).
Cells were incubated at 37° C.+5% CO2 for 46 hours. 10 uL of CCK8 solution was added to each well. Cells were incubated at 37° C.+5% CO2 for 2 hours. Absorbance at 450 nm was measured using a multiplate reader.
Viability was calculated using the equation: […]

[1] = system: HMC3 microglial cell line; assay: RSL3-induced ferroptosis model, cell viability (CCK-8); assay type: cell-based
HMC3 cells [2] = assay type: cell-based
LC3-II/LC3-I = conditions: HMC3, co-treated with RSL3 1 μM and compound 10, 5, 2.5 μM, 3 h
Description: After incubation, cells were washed 3 times with ice-cold PBS and lysed in RIPA buffer containing 1× protease inhibitor cocktail (MCE) and nuclease (Biyotime) on ice for 30 min. All samples were centrifuged and then quantified by bicinchoninic acid (BCA) assay (Pierce). Cell lysates were diluted with Laemmli Sample Buffer (Bio-Rad) and heated at 95° C. for 5 min. Samples were separated by 12% SDS-PAGE and transferred to a polyvinylidene difluoride membrane. Membrane was incubated with 3% bovine serum albumin (BSA, Sigma-Aldrich) for 1 h, and subsequently incubated with indicated primary antibody overnight at 4° C. After incubation, membrane was washed by wash buffer (containing 20 mM Tris, 150 mM NaCl and 0.1% Tween 20), and incubated with peroxidase-conjugated secondary antibody at room temperature for 1 h. Antibodies for GPX4 (52455, Cell Signaling Technology) was used at 1:500 dilution, GAPDH (sc-32233, Santacruz) was used at 1:3000 dilution, LC3B (A19665, ABclonal) was used at 1:1000 dilution. Goat anti-rabbit IgG HRP-linked antibody (7074, CST) was used at 1:2500 dilution, goat anti-mouse IgG (H+L) secondary antibody DyLight™ 488 (35502, Invitrogen) was used at 1:5000 dilution. Blot was washed and visualized using Clarity Western ECL Substrate (Bio-Rad) with ChemiDoc MP Imaging System (Bio-Rad). Band intensity was normalized by image J software.

[3] = cell free
HMC3 cells [4] = assay: Lipid peroxidation level by flow cytometry using C11-BODIPY; assay type: cell-based
Description: (§1) For flow cytometry, HMC3 cells (seeded 50,000 cells per well on 24-well plate one day prior to the experiment) were pretreated with 50 nM RSL3 for 2 h. […] After which medium was replaced with BODIPY™ 581/591C11 (10 μM, Invitrogen) or CellROX™ Green (5 μM, Invitrogen) for 30 min staining. Cells were then washed 3 times with PBS and collected. Fluorescence was measured by BD FACSympgony A5.2 SORP Flow Cell Analyzer (BD Biosciences).
Disequilibrium ROS level acts as a direct initiator of lipid peroxidation, which is one of the major hallmarks of ferroptosis. In this example, HMC3 cells according to the conditions in Table 4 were subjected to measurement of lipid peroxidation level using flow cytometry and the lipid peroxidation sensor C11-BODIPY.
For flow cytometry, HMC3 cells (seeded 50,000 cells per well on 24-well plate one day prior to the experiment) were pretreated with 50 nM RSL3 for 2 h. After RSL3 treatment, medium was replaced by DMSO (0.1%) only, SXQ087-1 (10, 5 and 2.5 μM), following by 3 h treatment. After which medium was replaced with BODIPY™ 581/591C11 (10 μM, Invitrogen) for 30 min staining. Cells were then washed 3 times with PBS and collected. Fluorescence was measured by BD FACSympgony A5.2 SORP Flow Cell Analyzer (BD Biosciences).
Lipid peroxidation is one of the major hallmarks of ferroptosis. In this example, HMC3 cells according to the conditions in Table 5 were subjected to measurement of lipid peroxidation level using flow cytometry and the lipid peroxidation sensor C11-BODIPY.

[5] = system: HT22 mouse hippocampal cell line; assay: RSL3-induced ferroptosis model, cell viability (CCK-8)
Description: In this example, the anti-ferroptotic properties of the BB analogues described in preceding examples were evaluated by a RSL3-induced ferroptosis model. […] To evaluate the anti-ferroptosis activity of BB analogues, we developed a phenotypic screening based on RSL3-induced ferroptosis model on HT22 mouse hippocampal cell line, HMC3 microglial cell line and BV-2 murine microglial cell line which were co-treated or pre-treated with RSL3 and BB analogues for 2-24 h, and the cell viability was subsequently measured.
HMC3 cell line was maintained in Minimum Essential Medium (MEM, Gibco) supplemented with 1× non-essential amino acid (Gibco), 1 mM sodium pyruvate (Gibco), 10% fetal bovine serum (FBS) (Gibco) and 1% penicillin/streptomycin (Gibco). BV-2 cell line was maintained in Roswell Park Memorial Institute (RPMI) 1640 medium (Gibco) supplemented with 10% FBS and 1% penicillin/streptomycin, and HT22 cell line was maintained in Dulbecco's Modified Eagle's Medium (DMEM) (Gibco) supplemented with 10% FBS and 1% penicillin/streptomycin. All cells were incubated at 37° C. in a humidified atmosphere under 5% CO2.
For phenotypic screening of bilobalide (BB) analogues, 5,000 cells per well (100 uL volume) of HT22, HMC3 or BV-2 cells were placed in 96-well plate and allowed to adhere for 22 h. After which, cells were pre-treated with 200 nM (on HT22, HMC3) or 500 nM (on BV-2) of RSL3 (Bidepharm) for 2 h respectively. Medium was then replaced by 50 μM BB analogues and followed by 22 h incubation subsequently. Cell viability was measured using cell counting kit-8 (CCK-8) (MCE). For dose-response of BB analogues, RSL3, HT22 and HMC3 cells (seeded on 96-well plates at 5,000 cells per well) were treated with multiple doses of RSL3 for 2 h. […] Cell viability was measured after 22 h treatment by CCK-8. […] Cell viability was measured by CCK-8 using CLARIOstar monochromator multimode plate reader under 450 nm wavelength.
In this example, the cells were pre-treated with RSL3 (200 nM for HT22 and HMC3, 500 nM for BV-2) for two hours, followed by bilobalide analogues treatment (50 PM) for 22 hours. Cell viability was measured using cell counting kit-8 (CCK-8); n=5 technical replicates. […] Such effect was further investigated by treating the cell lines with various doses of RSL3.

HMC3 cells [6] = assay: Cytotoxicity, cell viability of HMC3 cells; assay type: cell-based; conditions: 24 h treatment
Source text: Now referring to FIG. 11A, a chart showing the cell viability (%) of HMC3 cells treated with SXQ087-1, XBB-037 or bilobalide.

[7] = system: BV-2 murine microglial cell line; assay: RSL3-induced ferroptosis model, cell viability (CCK-8)
Description: In this example, the anti-ferroptotic properties of the BB analogues described in preceding examples were evaluated by a RSL3-induced ferroptosis model. […] To evaluate the anti-ferroptosis activity of BB analogues, we developed a phenotypic screening based on RSL3-induced ferroptosis model on HT22 mouse hippocampal cell line, HMC3 microglial cell line and BV-2 murine microglial cell line which were co-treated or pre-treated with RSL3 and BB analogues for 2-24 h, and the cell viability was subsequently measured. […]
For phenotypic screening of bilobalide (BB) analogues, 5,000 cells per well (100 uL volume) of HT22, HMC3 or BV-2 cells were placed in 96-well plate and allowed to adhere for 22 h. […] Cell viability was measured using cell counting kit-8 (CCK-8) (MCE). […] Cell viability was measured after 22 h treatment by CCK-8. […] Cell viability was measured by CCK-8 using CLARIOstar monochromator multimode plate reader under 450 nm wavelength.
In this example, the cells were pre-treated with RSL3 (200 nM for HT22 and HMC3, 500 nM for BV-2) for two hours, followed by bilobalide analogues treatment (50 PM) for 22 hours. Cell viability was measured using cell counting kit-8 (CCK-8); n=5 technical replicates. […]

GPX4 = GPX4 protein level by Western-blot; assay type: cell-based; conditions: HMC3, co-treated with RSL3 1 μM and compound 10, 5, 2.5 μM, 3 h
Source text: As mentioned above, RSL3 treatment results in an oxidized environment in cells, which promotes the CMA to scavenge damaged proteins including GPX4 or glyceraldehyde-3-phosphate dehydrogenase (GAPDH), a well-known CMA substrate. To gain insights into the mechanism of action of bilobalide analogue XBB-037 against the RSL3-induced ferroptosis, HMC3 cells were pre-treated with RSL3, followed by treatment with or without bilobalide analogue XBB-037.
In FIN56 assay, HMC3 (300,000 cells per well on 6-well plate) was pre-treated with FIN56 (2.5, 1.25, 0.625 μM) for 2 h, followed by 8 h treatment of DMSO only (0.1%) or XBB-037 (50 μM). In RSL3 assay, HMC3 (300,000 cells per well on 6-well plate) was pre-treated with RSL3 (750, 500, 250 nM) for 2 h, followed by 4 h or 8 h treatment of DMSO only (0.1%) or XBB-037 (50 μM). […] Antibodies for GPX4 (52455, CST) was used at 1:500 dilution, β-Actin (AC026, ABclonal) was used at 1:400,000 dilution, GAPDH (AC035, ABclonal) was used at 1:3000 dilution. […] Band intensity was normalized by image lab software.
Now referring to FIGS. 7E-7F, GPX4 levels in HMC3 cells pre-treated with RSL3 are shown. Protein levels of GPX4 and […] at 0, 250, 500 or 750 nM RSL3 were measured by Western-blot. HMC3 cells were pretreated with RSL3 for 2 hours and then treated with or without 50 μM bilobalide analogue XBB-037 for 4 hours.
In addition to […], FIN56 was further used to investigate the GPX4 regulation of bilobalide analogue XBB-037. As mentioned above, FIN56 is a Class III ferroptosis inducer, which causes the depletion of cellular GPX4 levels without affecting GPX4 activity. In this experiment, HMC3 cells were pretreated with FIN56 for 2 hours and then treated with or without 50 μM XBB-037 for 8 hours. Protein levels were measured by Western-blotting using indicated antibodies. Data were plotted as mean±s.d., n=3 technical replicates. **p<0.01. Statistical analyses were performed by two-way ANOVA with multiple comparisons using Two-stage linear step-up procedure of Benjamini, Krieger and Yekutieli multiple comparisons test. […]

[8] = Hydrolytic stability in buffer monitored by LC-MS/MS
HMC3 cells [9] = assay: Intracellular ROS level by CellROX (fluorescent imaging and flow cytometry); assay type: cell-based; conditions: HMC3, 50 nM RSL3 2 h, then 50 μM compound 3 h
Description: as §1
For fluorescent imaging, 10,000 cells per well of HMC3 were laid on cover slip and incubated overnight. After the same compound treatment as described above in this section, cells were subsequently incubated with CellROX™ Green and Hoechst 34580 (MCE) for 30 min. After incubation, cells were washed 3 times gently with PBS. Cover slips were then attached to glass slides by Anti-Fade Fluorescence Mounting Medium (Abcam) and imaged via ECLIPSE Ti fluorescence microscope (Nikon). Fluorescent intensity was quantified using imageJ software.
To further evaluate the anti-ferroptotic properties of bilobalide analogues, we tested its effect on the total level of intracellular reactive oxygen species (ROS), we performed fluorescent staining on the HMC3 cell line using CellROX, which is a probe which can emit green fluorescence after reacting with ROS. […]

| Structure (SMILES) | IC50 (KP-1 cells) | inhibition of RSL3-induced ferroptosis (phenotypic screening, cell viability) [1] | protection against FIN56-induced cell death (cell viability) (HMC3 cells [2]) | protection against ML162 lethality (cell viability) (HMC3 cells [2]) | protection against ML210 lethality (cell viability) (HMC3 cells [2]) | protection against erastin-induced lethality (cell viability) (HMC3 cells [2]) | LC3-II/LC3-I ratio after RSL3 (LC3-II/LC3-I) | radical scavenging activity (relative radical level) [3] | lipid peroxidation level (C11-BODIPY) (HMC3 cells [4]) | inhibition of RSL3-induced ferroptosis (phenotypic screening, cell viability) [5] | cytotoxicity (cell viability) (HMC3 cells [6]) | inhibition of RSL3-induced ferroptosis (phenotypic screening, cell viability) [7] | GPX4 level after RSL3 (GPX4) | shift of RSL3 dose-dependent viability curve ([1]; HMC3, multiple doses of RSL3, 50 μM compound) | lipid peroxidation level (C11-BODIPY) (HMC3 cells [4]; HMC3, 50 nM RSL3 2 h, then 50, 25 and 12.5 μM compound 3 h) | shift of RSL3 dose-dependent viability curve ([5]; HT22, multiple doses of RSL3, 50 μM compound) | concentration remaining (hydrolytic stability) ([8]; buffer pH 6.8, after 20 hours) | concentration remaining (hydrolytic stability) ([8]; buffer pH 7.4, within the first 10 hours) | intracellular ROS level (CellROX fluorescent staining) (HMC3 cells [9]) |
| --- | --- | --- | --- | --- | --- | --- | --- | --- | --- | --- | --- | --- | --- | --- | --- | --- | --- | --- | --- |
| CC(C)(C)[C@]1(O)C[C@@H]2OC(=O)C[C@@]23C(=O)O[C@@H]2N(CC4C5CC6CC(C5)CC4C6)C(=O)[C@H](OC(=O)c4ccc(CN)cc4)[C@]213 (stereo partly drawn) [SCC506, (3aS,5aS,8R,8aS,9R,10aS)-6-(((1S,3S)-adamantan-2-yl)methyl)-9-(tert-butyl)-9-hydroxy-2,4,7-trioxooctahydro-4H,9H-furo[3″,2″:2′,3′]cyclopenta[1′,2′:3,4]furo[2,3-b]pyrrol-8-yl 4-(aminomethyl)benzoate hydrochloride] | 17.2 µM |  |  |  |  |  |  |  |  |  |  |  |  |  |  |  |  |  |  |
| CC(C)(C)[C@]1(O)C[C@@H]2OC(=O)C[C@@]23C(=O)O[C@@H]2N(CCc4ccc(O)c(O)c4)C(=O)[C@H](OC(=O)c4ccccc4)[C@]213 [SXQ087-1] |  | effectively inhibit ferroptosis | effectively suppressed FIN56-induced cell death | alleviated the lethality of ML162 | alleviated the lethality of ML210 | suppressed erastin-induced lethality | increasing LC3-II/LC3-I ratio was also reduced | significant dose-dependent radical scavenging activity | significant down-regulation of RSL3-induced lipid peroxidation accumulation in a dose-dependent manner | effectively inhibit ferroptosis | no significant cytotoxicity | effectively inhibit ferroptosis | RSL3-induced GPX4 degradation was reduced |  |  |  |  |  |  |
| CC(C)(C)[C@]1(O)C[C@@H]2OC(=O)C[C@@]23C(=O)O[C@@H]2OC(=O)[C@H](O)[C@]213 [bilobalide] |  |  |  |  |  |  |  |  |  |  | no significant cytotoxicity |  |  | relatively marginal | no significant alteration | relatively marginal | below 20% | below 20% | no reduction in ROS level |
